According to patent US20050244481A1, “Personal care products and methods for inhibiting the adherence of flora to skin” (Kimberly-Clark Worldwide, Inc., priority 2004, published 2005):

Experiments:
Assay type in all cases: cell-based
[1] = tested on: Pseudomonas aeruginosa (ATCC # 27853); test: Inhibition of P. aeruginosa attachment to VITRO-SKIN synthetic skin substrate (Example 1, AlamarBlue); settings: 3 h, RFU at 120 min, n = 5
Procedure: Two days prior to the test a bacterial culture was started by inoculating 10 ml Luria-Bertani (LB) (Sigma-Aldrich, St. Louis, Mo.) with one frozen bead of Pseudomonas aeruginosa (ATCC # 27853), and incubating the culture overnight at 37° C. with agitation at 125 rpm.
One day prior to the test a 100 ml LB culture was inoculated with 100 μl of the overnight culture and grown overnight at 37° C. with agitation at 125 rpm. VITRO-SKIN® synthetic skin substrate (N19, IMS, Milford, Conn.) was cut with a #2 size boring tool and placed into the wells of a 96 well tissue culture plate (Costar #3596, Corning Inc., Corning, NY). The plates were kept in a humidity chamber overnight until use to prevent dehydration of the tissues.
(§1) The day of the test, the optical density at 650 nm (OD) of the overnight culture was measured using a Spectramax spectrophotometer (Molecular Devices, Sunnyvale, Calif.). The culture was centrifuged at 4,500×g for 10 minutes at 4° C. (J-251 centrifuge, Beckman, Fullerton, Calif.) to pellet the bacteria. The bacteria were resuspended in phosphate buffered saline (PBS) to give a concentration of 2×10^10 cells/ml (1 OD equals 1×10^9 cells/ml).
A 20% (w/v) solution of each inulin source (Chicory root, Dahlia tuber from Sigma-Aldrich, St. Louis, Mo.) was prepared by mixing 0.3 g inulin with PBS (Invitrogen, Carlsbad, Calif.) to a final volume of 1.5 ml. Tween 20 (Sigma-Aldrich, St. Louis, Mo.) was included as a positive control, and a 4% (v/v) stock was prepared by mixing 40 μl of Tween 20 to 960 μl PBS. The Tween 20 stock was diluted to prepare a 2% (v/v) solution of Tween 20 by mixing 800 μl of the 4% solution and 800 μl of PBS. A two fold dilution series was prepared for each inulin source as follows: • 10%: 800 μl of the 20% solution plus 800 μl of PBS • 5%: 800 μl of the 10% solution plus 800 μl of PBS • 2.5%: 800 μl of the 5% solution plus 800 μl of PBS • 1.25% 800 μl of the 2.5% solution plus 800 μl of PBS.
All tests were run five times (n=5).
For the applied dose, 50 μl of each inulin dilution, Tween 20 alone, or PBS alone was added to the VITRO-SKIN® discs followed immediately by 50 μl of either the bacteria cells or PBS. Samples containing 50 μl inulin dilutions and 50 μl PBS served as a background controls for the inulin samples. Samples containing 50 μl Tween 20 and 50 μl PBS served as background controls for the Tween 20 samples. Background controls for the PBS were 100 μl PBS. The plates were gently shaken at room temperature for three hours. The tissues were washed three times with 250 μl of PBS, and transferred to an opaque white 96 well plate (Costar # 3922). 200 μl of AlamarBlue™ (Trek Diagnostic Systems, Cleveland, Ohio) in LB (20 μl AlamarBlue™+180 μl LB per well) was added to each well. AlamarBlue™ conversion was monitored every 15 minutes in a microfluorometer (Fluoroskan Ascent, Thermo-Labsystems, Beverly, Mass.) for 120 minutes with an excitation of 544 nm and emission of 590 nm. In between readings the plates were covered and incubated at 37° C.
(§2) Results are expressed as percent bacteria adhered to the tissue relative to the PBS control. The percentage is based on the number of cells that adhered to the skin in the inulin-containing (or Tween 20-containing control) samples as compared to the number of cells that adhered to the skin in the PBS control (i.e. PBS plus bacteria cells), as determined by the AlamarBlue® levels (relative fluorescence units (RFU)) at 120 minutes. The percent adherence was calculated by the formula: (RFU of the sample−RFU of appropriate background control)/(average of the RFU of the PBS treatment−average RFU of PBS background control)*100.
The results for the five wells for each dilution step were averaged, and the percent attached as compared to the PBS control treatment was calculated.

Pseudomonas aeruginosa [2] = test: Inhibition of P. aeruginosa attachment to VITRO-SKIN synthetic skin substrate (Example 2, AlamarBlue); settings: for % Attached as Compared to PBS Treatment: 3 h, RFU at 60 min, n = 3
Procedure: (§3) Two days prior to the test a bacterial culture was started by inoculating 10 ml of Luria-Bertani (LB) medium with one frozen bead containing Pseudomonas aeruginosa (Dr. G. O'Toole, Dept. Microbiol. Dartmouth Medical School, Hanover, N.H.), and incubating the culture overnight at 37° C. with agitation at 125 rpm.
(§4) One day prior to the test a 100 ml LB culture was inoculated with 100 μl of the overnight culture and grown overnight at 37° C. with agitation at 125 rpm.
as §1, with “test” for “test,”, “density” for “density at 650 nm”, “measured at 650 nm” for “measured”, “C.” for “C. (J-251 centrifuge, Beckman, Fullerton, Calif.)”, “cells/ml). […]” for “cells/ml).”
(§5) The tissues were treated with 50 μl of inulin, Tween 20 alone, or PBS alone followed immediately by 50 μl of either the bacteria cells or PBS. […] AlamarBlue™ conversion was monitored kinetically in a microfluorometer (Fluoroskan Ascent, Thermo-Labsystems, Beverly, Mass.) for 60 minutes at 37° C., with an excitation of 544 nm and emission of 590 nm.
as §2, with “(RFU)” for “(relative fluorescence units (RFU))”, “60” for “120”
(§6) The results for the three wells comprising each dilution were averaged, and the percent attached as compared to the PBS control treatment was calculated.

Pseudomonas aeruginosa [3] = test: Inhibition of P. aeruginosa attachment to porcine skin (Example 2, AlamarBlue); settings: for % Attached as Compared to PBS Treatment: 3 h, RFU at 60 min, n = 3
Procedure: as §3, §4
as §1, with “test” for “test,”, “density” for “density at 650 nm”, “measured at 650 nm” for “measured”, “C.” for “C. (J-251 centrifuge, Beckman, Fullerton, Calif.)”, “cells/ml). […]” for “cells/ml).”
as §5
as §2, with “(RFU)” for “(relative fluorescence units (RFU))”, “60” for “120”
as §6

Pseudomonas aeruginosa [4] = test: Inhibition of P. aeruginosa attachment to EpiDerm skin culture (Example 3); settings: for % Attached as Compared to PBS Treatment: 37° C., 3 h, n = 2
Procedure: The EpiDerm™ (MatTek, Ashland, Mass.) experiment was performed as outlined by the protocol supplied by the manufacturer for the EPI-200 EpiDerm™.
Two days prior to the test bacterial culture was started by inoculating 10 ml of Luria-Bertani broth (LB) with one to two well isolated colonies of Pseudomonas aeruginosa (Dr. G. O'Toole, Dept. Microbiol. Dartmouth Medical School, Hanover, N.H.) and incubating the culture overnight at 37° C. with agitation at 125 rpm.
One day prior to the test a 50 ml LB culture was inoculated with 50 μl of the overnight culture and grown overnight at 37° C. with agitation at 125 rpm. The optical density (at 650 nm) of the overnight culture was measured using a Spectramax spectrophotometer (molecular Devices, Sunnyvale, Calif.). The culture was centrifuged at 4,500×g for 10 minutes at 4° C. to pellet the bacteria. The bacteria were resuspended in phosphate buffered saline (PBS) to give a concentration of 2×10^10 cells/ml (1 OD equals 1×10^9 cells/ml).
A 20% (w/v) stock of inulin (Jerusalem Artichoke, Sigma Chemical St Louis Mo.) was prepared by mixing 0.20 g of inulin with a sufficient amount of PBS to yield a final volume of 1 ml. […]
For the applied dose, 50 μl of 20% inulin in PBS, 4% Tween 20 alone, or PBS alone was applied to the EpiDerm™ tissue followed immediately by 50 μl of either the bacteria cells or PBS. […] After three hours, the tissue was analyzed for the number of adhered bacteria.
To measure adherence of P. aeruginosa to the EPIDERM™ tissue, the liquid remaining on the tissue was first transferred to a fresh microcentrifuge tube. […] Fluorescence was monitored in a microfluorometer at an excitation of 485 nm and an emission of 510 nm.
Results are expressed as percent bacteria adhered to the tissue relative to the PBS control. […] The percent adherence was calculated by the formula: (RFU in bound fraction of the inulin or Tween 20 sample−average background RFU)/(average of the RFU in the bound fraction of the cells alone treatment−average background RFU)*100. […]

## Tween 20 [reference compound]
[1]; treatment concentration 2%
  % Attached as Compared to PBS Treatment: 50%
Pseudomonas aeruginosa [2]; treatment concentration 2%
  % Attached as Compared to PBS Treatment: 10%
Pseudomonas aeruginosa [3]; treatment concentration 2%
  % Attached as Compared to PBS Treatment: 70%
Pseudomonas aeruginosa [4]; treatment concentration 2%
  % Attached as Compared to PBS Treatment: 73%

## inulin [Chicory root]
[1]; treatment concentration 1.25%
  % Attached as Compared to PBS Treatment: 92%
[1]; treatment concentration 2.5%
  % Attached as Compared to PBS Treatment: 60%
[1]; treatment concentration 5%
  % Attached as Compared to PBS Treatment: 45%
[1]; treatment concentration 10%
  % Attached as Compared to PBS Treatment: 17%

## inulin [Dahlia tuber]
[1]; treatment concentration 1.25%
  % Attached as Compared to PBS Treatment: 86%
[1]; treatment concentration 2.5%
  % Attached as Compared to PBS Treatment: 59%
[1]; treatment concentration 5%
  % Attached as Compared to PBS Treatment: 48%
[1]; treatment concentration 10%
  % Attached as Compared to PBS Treatment: 29%

## inulin [Jerusalem Artichoke]
Pseudomonas aeruginosa [2]
  effect on attachment of P. aeruginosa to VITRO-SKIN substrate (in words): inhibited attachment
Pseudomonas aeruginosa [2]; treatment concentration 10%
  % Attached as Compared to PBS Treatment: 53%
Pseudomonas aeruginosa [3]
  effect on attachment of P. aeruginosa to porcine skin (in words): also occurred on porcine skin
Pseudomonas aeruginosa [3]; treatment concentration 10%
  % Attached as Compared to PBS Treatment: 25%
Pseudomonas aeruginosa [4]
  effect on attachment of P. aeruginosa to EpiDerm (in words): inhibited attachment
Pseudomonas aeruginosa [4]; treatment concentration 10%
  % Attached as Compared to PBS Treatment: 57%
